Laboratory results from patent US20240390377A1, “COMPOSITION FOR THE PREVENTION OR TREATMENT OF NEURODEGENERATIVE OR MOTOR NEURON DISEASES COMPRISING HALOFUGINONE AS AN ACTIVE INGREDIENT” (CURAMYS CO., LTD., priority 2022, published 2024).

Columns and labels:
C2C12 cells = test: Real-time qRT-PCR analysis of C2C12 myoblasts (TGF-β1 stimulation, halofuginone treatment); assay type: cell-based, mouse; conditions: low (5 ng/ml) or high (10 ng/ml) concentration halofuginone, 24 h (FIG. 4a)
Method: Specifically, C2C12 cells (CRL-1772) were purchased from the American Type Culture Collection (ATCC) and maintained in DMEM medium (Welgene) containing 10% (v/v) fetal bovine serum (FBS; Gibco) and 1% penicillin-streptomycin (P/S; Gibco) at 37° C. under 5% CO2 conditions. The C2C12 cells were seeded in 6-well plates at a density of 3×10^5 cells per well and allowed to adhere for 24 hours. Subsequently, the medium was replaced with serum-free medium after 24 hours, followed by stimulation with 5 ng/ml rhTGF-β1 (recombinant human TGF-β1; R&D Systems). After stimulation, the cells were treated with various concentrations (0 [control], or 1, 2.5, 5 [low dose], 10 [high dose], 20, 50, 100 ng/ml) of halofuginone (Sigma) in serum-free medium for 24 hours.
(§1) Specifically, total RNA was isolated from C2C12 cells in Example 1, fibroblasts in Example 5, and the lumbar spinal cord of mice in Example 6 using the FavorPrep™ Tri-RNA Reagent (Favorgen). The lumbar spinal cord was isolated from the mouse in Example 6 and stored frozen at −80° C. until the experiment. The concentration of total RNA was measured at 260 nm absorbance using a spectrophotometer (NanoDrop Spectrophotometer ND-2000, Thermo Scientific). cDNA was synthesized from 1 μg of total RNA using the ReverTra Ace-α™ (Toyobo) according to the manufacturers protocol. Quantitative RT-PCR was performed using the SYBR Green ExcelTaq™ 2× Fast Q-PCR Master Mix (TQ1200, Smobio) on a thermocycler (CFX Connect Real-Time PCR Detection System, BIO-RAD) with the primers listed in Table 3 below. Fluorescence data were analyzed with Bio-Rad CFX Manager 3.1 software, and control versus relative mRNA expression was calculated by the 2AT) method. Experiments were performed four times on all samples. All primers were designed using Primer3 online software, and GAPDH was used as a control group.
Specifically, after treating C2C12 cells with TGF-β1 for 24 hours as in Example 1, real-time qRT-PCR was performed in the same manner as in Example 11 to confirm TGF-β1, 2 and 3, α-SMA and MyoD mRNA expression (FIG. 2a), and Western blot analysis was performed in the same manner as in Example 12 to confirm autocrine expression of TGF-β1 and MyoD protein and α-SMA (FIG. 2b).
Specifically, as in Example 1, C2C12 cells were stimulated with TGF-β1 for 24 hours, and then halofuginone was treated for 24 hours, and real-time qRT-PCR was performed in the same manner as in Example 11 to confirm TGF-β1, α-SMA, MyoD, and collagen I (Col-I) mRNA expression (FIG. 4a). In addition, Western blot analysis was performed in the same manner as in Example 12 to confirm TGF-β1, α-SMA, MyoD, and collagen I protein expression (FIG. 4b). In addition, immunocytochemical analysis was performed in the same manner as in Example 3 to confirm α-SMA and MyoD expression (FIG. 4c).

[1] = system: G93A mutant SOD1 transgenic mice; test: Real-time qRT-PCR analysis of lumbar spinal cord in ALS animal model; assay type: in vivo, mouse
Method: As a control group, non-transgenic mice were injected intraperitoneally (i.p.) with vehicle (DMSO) in the same manner for the same period of time.
as §1
In addition, to investigate the motor neuron source of the spinal cord, motor neurons of the lumbar spinal cord were observed and counted in the same manner as described in Example 9 (FIG. 9d), and real-time qRT-PCR and Western blot analysis were performed in the same manner as described in Example 11 and Example 12 to quantitatively analyze the expression of ChAT mRNA (FIG. 9e) and ChAT protein (FIG. 9f).
Specifically, Halofuginone was administered to G93A mutant SOD1 mice in the same manner as described in <Example 6>, and lumbar spinal cord was isolated after 120 days of age of mice were sacrificed. Then, mRNA expression of inflammation-related factors and neuronal cell death-related factors of CNS was confirmed by performing real-time qRT-PCT analysis in the same manner as in Example 11 (FIG. 11a), and protein expression of neuronal cell death-related factors was confirmed by performing Western blot analysis in the same manner as in Example 12 (FIG. 11b). Since the role (inflammatory or anti-inflammatory effect) differs according to the M1 or M2 subtype of microglia, the expression of M1 marker (iNOS, CD86), M2 marker (arginase 1) and pro-inflammatory factors (IFN-a, TNF-a, IL-1b, and IL-6) were confirmed as factors related to inflammation of CNS. In addition, the expression of caspase-3, bax, and bcl-2 was confirmed as factors related to neuronal apoptosis.

Question: For O=C(C[C@H]1NCCC[C@@H]1O)Cn1cnc2cc(Br)c(Cl)cc2c1=O (racemic) [halofuginone], which “decrease in MyoD mRNA level by TGF-β1 stimulation” value (C2C12 cells) is on record?
Answer: The value was “significantly recovered”.

Question: What about the “increase in TGF-β1 mRNA level by TGF-β1 stimulation” value (C2C12 cells) of the same compound?
Answer: Its value is “significantly reduced”.

Question: And the “increase in collagen I mRNA level by TGF-β1 stimulation” value (C2C12 cells)?
Answer: Its value is “significantly reduced”.

Question: What about the “increase in α-SMA mRNA level by TGF-β1 stimulation” value (C2C12 cells) of the same compound?
Answer: The value was “significantly reduced”.

Question: What about the “mRNA level of ChAT in lumbar spinal cord” value ([1]; 120-day-old mice, compared to DMSO Non-TG group (FIG. 9e)) of the same compound?
Answer: Its value is “preserved similarly”.

Question: And the “increase in mRNA levels of M1 markers (iNOS, CD86) in lumbar spinal cord” value ([1]; 120 days of age (FIG. 11a))?
Answer: The value was “inhibited”.

Question: And the “increase in mRNA levels of proinflammatory factors (IFN-a, TNF-a, IL-1b, IL-6) in lumbar spinal cord” value ([1]; 120 days of age (FIG. 11a))?
Answer: The value was “inhibited”.

Question: What about the “mRNA level of bcl-2 in lumbar spinal cord” value ([1]; 120 days of age, decreased in DMSO TG group (FIG. 11a)) of the same compound?
Answer: The value was “preserved”.
